{
  "source": "paper PMC11915855",
  "about": "“The flavonoid-sensing regulator AefR is involved in modulating quorum sensing through repressing the MexEF-OprN efflux pump in Pseudomonas fluorescens” (mSystems, 2025)",
  "key": {"[1]": {"target": "T1, AefR", "T1 construct": "His6-AefR (aefR gene in a pET-28b-derived vector)", "assay": "ITC with purified His6-AefR; supported by EMSA (disrupts AefR-pmexEF-oprN interaction at […])", "assay_type": "binding, Pseudomonas fluorescens"}, "[2]": {"target": "T1, AefR", "assay": "ITC with purified His6-AefR; supported by EMSA (disrupts AefR-pmexEF-oprN interaction at […])", "assay_type": "binding, Pseudomonas fluorescens", "remark": "listed apart in the source"}},
  "note": "Like-named read-outs stand apart in the source and are kept apart here.",
  "data": [
    {"compound": "O=c1cc(-c2ccc(O)cc2)oc2cc(O)cc(O)c12", "note": "[apigenin]", "values": [
      {"measurement": "Kd", "setting": "[1]", "result": 162, "unit": "µM"}
    ]},
    {"compound": "O=C(CCc1ccc(O)cc1)c1c(O)cc(O)cc1O", "note": "[phloretin]", "values": [
      {"measurement": "Kd", "setting": "[2]", "result": 2.79, "unit": "µM"}
    ]},
    {"compound": "O=c1c(O)c(-c2ccc(O)c(O)c2)oc2cc(O)cc(O)c12", "note": "[quercetin]", "values": [
      {"measurement": "Kd", "setting": "[2]", "result": 640, "unit": "µM"}
    ]}
  ]
}
